The numbers were not newly measured in patent publication US20240115695A1, “Method of Obtaining Betulin as an Adjuvant in a Vaccine Against Coronavirus SARS-COV-2” (BETUVAKS LIMITED LIABILITY COMPANY, priority 2020, published 2024), which cites them from elsewhere.

As usually defined, the LD50 is the dose expected to kill half of the subjects tested.

The conditions of series [1]: in vivo.

On to `C1CCOC1` [THF, tetrahydrofuran], for which, in series [1], the LD50 is 2300 mg/kg and the MPC is given as 100 mg/m^3. As to `C=C(C)[C@@H]1CC[C@]2(CO)CC[C@]3(C)[C@H](CC[C@@H]4[C@@]5(C)CC[C@H](O)C(C)(C)[C@@H]5CC[C@]43C)[C@@H]12` [betulin], the solubility of betulin result is “less than 1 μg/mL”.
